Test results reported in patent US20240408117A1, “COMPOSITIONS AND METHODS FOR TREATING HEMIPLEGIC MIGRAINE” (Schedule 1 Therapeutics, Inc., priority 2023, published 2024).
In brackets after ≈: the same amount, converted by molar mass.

Columns and labels:
[1] = Solubility of dronabinol at 25° C.; assay type: physicochemical; details: for solubility: organic solvent or mixture
Method: Solubility at 25° C.: Dronabinol is immiscible in water.

[2] = Hygroscopicity of dronabinol by thermogravimetric analysis; assay type: physicochemical
[3] = Solubility of cannabidiol in solvents, oils and buffers at 25° C.; assay type: physicochemical
[4] = Accelerated and long-term stability studies of cannabidiol (ICH Q1A (R2)); assay type: physicochemical; details: batches stored per ICH Q1A (R2)
Method: Manufacturing of all lots of cannabidiol was conducted in a manner consistent with Good Manufacturing Practices and ICH Q7 regulations. Consistent with these principles, and in direct regard to production of cannabidiol, the manufacturer conducted accelerated stability studies utilizing batches of cannabidiol manufactured at full scale. […]. In addition, the manufacturer has batches of cannabidiol on a long-term stability study. […] For these batches, the data and results from these stability studies are in compliance with documentation procedures.

OEL of cannabidiol = details: estimated

Question: Which Solubility ([1]; Water) does the source give for `CCCCCc1cc(O)c2c(c1)OC(C)(C)[C@@H]1CCC(C)=C[C@@H]21` [Dronabinol, 2-(6aR,10aR) 6a,7,8,10a-tetrahydro-6,6,9-trimethyl-3-pentyl-6H-dibenzo[b,d]pyran-l-ol] here?
Answer: immiscible

Question: And the solubility ([1]; Acetone)?
Answer: 100 mg/mL (≈ 318 mM)

Question: And the solubility ([1]; Ethanol)?
Answer: 100 mg/mL (≈ 318 mM)

Question: And the Hygroscopicity [2]?
Answer: non-hygroscopic

Question: What about the weight change ([2]; approximately 140° C.) of the same molecule?
Answer: less than 0.1%

Question: For `C=C(C)[C@@H]1CCC(C)=C[C@H]1c1c(O)cc(CCCCC)cc1O` [Cannabidiol, 2-[(1R,6R)-3-methyl-6-prop-1-en-2-ylcyclohex-2-en-1-yl]-5-pentylbenzene-1,3-diol], which solubility ([3]; Britton Robinson Buffer, aqueous buffer, BRB pH 6, 25° C.) is on record?
Answer: 0.00013 mg/mL (≈ 0.000413 mM)

Question: And the solubility ([3]; Britton Robinson Buffer, aqueous buffer, BRB pH 8, 25° C.)?
Answer: 0.00012 mg/mL (≈ 0.000382 mM)

Question: What about the solubility ([3]; Britton Robinson Buffer, pH 4, aqueous buffer, BRB pH4, 25° C.) of the same molecule?
Answer: 0.00011 mg/mL (≈ 0.00035 mM)

Question: And the solubility ([3]; Britton Robinson buffer, aqueous buffer, BRB pH 10, 25° C.)?
Answer: 0.00013 mg/mL (≈ 0.000413 mM)

Question: What about the solubility ([3]; Britton Robinson buffer, aqueous buffer, BRB pH 11, 25° C.) of the same molecule?
Answer: 0.00041 mg/mL (≈ 0.0013 mM)

Question: What about the Solubility ([3]; Heptane, 25° C.) of the same molecule?
Answer: 64.6 mg/mL (≈ 205 mM)

Question: What about the Solubility ([3]; Isooctane, 25° C.) of the same molecule?
Answer: 43.9 mg/mL (≈ 140 mM)

Question: And the Solubility ([3]; Water, 25° C.)?
Answer: <0.1 mg/mL

Question: And the solubility ([3]; Water, 25° C.)?
Answer: < 0.1 mg/mL

Question: And the solubility ([3]; aqueous buffer, BRB (Britton Robinson Buffer) pH 2, 25° C.)?
Answer: 0.00011 mg/mL (≈ 0.00035 mM)

Question: And the solubility ([3]; aqueous buffer, Britton Robinson Buffers)?
Answer: < 0.1 mg/mL

Question: And the solubility ([3]; aqueous buffer, Phosphate Buffer pH 6.5 without SLS, 25° C.)?
Answer: 0.00015 mg/mL (≈ 0.000477 mM)

Question: What about the solubility ([3]; aqueous with cosolvent or surfactant or cyclodextrin, Cremophor EL, 25° C.) of the same molecule?
Answer: > 100 mg/mL

Question: And the solubility ([3]; aqueous with cosolvent or surfactant or cyclodextrin, Tween 80, 25° C.)?
Answer: > 100 mg/mL

Question: What about the Solubility ([3]; n-Decane, 25° C.) of the same molecule?
Answer: 36.8 mg/mL (≈ 117 mM)

Question: And the solubility ([3]; oil or lipid, Dodecane Oil, 25° C.)?
Answer: 28 mg/mL (≈ 89 mM)

Question: What about the solubility ([3]; oil or lipid, Mineral Oil, 25° C.) of the same molecule?
Answer: 16 mg/mL (≈ 50.9 mM)

Question: And the solubility ([3]; oil or lipid, Sesame Oil, 25° C.)?
Answer: 216 mg/mL (≈ 687 mM)

Question: What about the solubility ([3]; oil or lipid, Sunflower Seed Oil, 25° C.) of the same molecule?
Answer: > 100 mg/mL

Question: And the solubility ([3]; organic solvent or mixture, 1,2-Dimethyloxyethane, 25° C.)?
Answer: > 100 mg/mL

Question: What about the solubility ([3]; organic solvent or mixture, 1,4-dioxane, 25° C.) of the same molecule?
Answer: > 100 mg/mL

Question: And the solubility ([3]; organic solvent or mixture, 1-Propanol, 25° C.)?
Answer: > 100 mg/mL

Question: And the solubility ([3]; organic solvent or mixture, 2-Propanol (IPA), 25° C.)?
Answer: > 100 mg/mL

Question: What about the solubility ([3]; organic solvent or mixture, 2-butanone, 25° C.) of the same molecule?
Answer: > 100 mg/mL

Question: What about the solubility ([3]; organic solvent or mixture, 2-methyl tetrahydrofuran (2-MeTHF), 25° C.) of the same molecule?
Answer: > 100 mg/mL

Question: What about the solubility ([3]; organic solvent or mixture, 2-methyl tetrahydrofuran saturated with water, 25° C.) of the same molecule?
Answer: > 100 mg/mL

Question: What about the solubility ([3]; organic solvent or mixture, Acetone, 25° C.) of the same molecule?
Answer: > 100 mg/mL

Question: What about the solubility ([3]; organic solvent or mixture, Acetonitrile (ACN), 25° C.) of the same molecule?
Answer: > 100 mg/mL

Question: What about the solubility ([3]; organic solvent or mixture, Anisole, 25° C.) of the same molecule?
Answer: > 100 mg/mL

Question: What about the solubility ([3]; organic solvent or mixture, Chloroform, 25° C.) of the same molecule?
Answer: > 100 mg/mL

Question: And the solubility ([3]; organic solvent or mixture, Cumene, 25° C.)?
Answer: > 100 mg/mL

Question: And the solubility ([3]; organic solvent or mixture, Cyclohexane, 25° C.)?
Answer: > 100 mg/mL

Question: And the solubility ([3]; organic solvent or mixture, DMSO, 25° C.)?
Answer: > 100 mg/mL

Question: And the solubility ([3]; organic solvent or mixture, Dichloromethane, 25° C.)?
Answer: > 100 mg/mL

Question: What about the solubility ([3]; organic solvent or mixture, Diethyl Ether, 25° C.) of the same molecule?
Answer: > 100 mg/mL

Question: What about the solubility ([3]; organic solvent or mixture, Ethanol (EtOH), 25° C.) of the same molecule?
Answer: > 100 mg/mL

Question: And the solubility ([3]; organic solvent or mixture, Ethyl Acetate (EtOAc), 25° C.)?
Answer: > 100 mg/mL

Question: And the solubility ([3]; organic solvent or mixture, Ethyl Formate, 25° C.)?
Answer: > 100 mg/mL

Question: And the solubility ([3]; organic solvent or mixture, Isobutanol, 25° C.)?
Answer: > 100 mg/mL

Question: What about the solubility ([3]; organic solvent or mixture, Isopropyl Acetate (IPAc), 25° C.) of the same molecule?
Answer: > 100 mg/mL

Question: And the solubility ([3]; organic solvent or mixture, Methanol (MeOH), 25° C.)?
Answer: > 100 mg/mL

Question: And the solubility ([3]; organic solvent or mixture, N-methyl-pyrrolidone, 25° C.)?
Answer: > 100 mg/mL

Question: And the solubility ([3]; organic solvent or mixture, Tetrahydrofuran, 25° C.)?
Answer: > 100 mg/mL

Question: What about the solubility ([3]; organic solvent or mixture, Toluene, 25° C.) of the same molecule?
Answer: > 100 mg/mL

Question: And the solubility ([3]; organic solvent or mixture, all other solvents examined with the exception of heptane, n-decane and isooctane)?
Answer: > 100 mg/mL

Question: What about the solubility ([3]; organic solvent or mixture, methylcyclohexane, 25° C.) of the same molecule?
Answer: > 100 mg/mL

Question: What about the solubility ([3]; organic solvent or mixture, n-hexane, 25° C.) of the same molecule?
Answer: > 100 mg/mL

Question: What about the solubility ([3]; organic solvent or mixture, p-Xylene, 25° C.) of the same molecule?
Answer: > 100 mg/mL

Question: What about the solubility ([3]; organic solvent or mixture, tert-Butyl methyl ether (MTBE), 25° C.) of the same molecule?
Answer: > 100 mg/mL

Question: And the solubility ([3]; phosphate buffer with 0.4% SLS, aqueous with cosolvent or surfactant or cyclodextrin, Phosphate Buffer pH 6.5 with 0.4% SLS, 25° C.)?
Answer: 0.00012 mg/mL (≈ 0.000382 mM)

Question: And the “Stability (impurity levels, assay)” value [4]?
Answer: no trends towards increased impurity levels or decrease in assay

Question: What about the OEL (OEL of cannabidiol) of the same molecule?
Answer: 5-20 μg/m^3
